Results taken from ChEMBL document CHEMBL4359918, “Discovery of tissue selective liver X receptor agonists for the treatment of atherosclerosis without causing hepatic lipogenesis” (Eur J Med Chem, 2019).
Activity calls are given as the source filed them. No cut-off for these calls is given here.

Key:
[1] = target: T1, LXRalpha (Oxysterols receptor LXR-alpha) (Homo sapiens, UniProt Q13133); assay: Agonist activity at human LXRalpha transfected in HEK293T cells at 10 uM incubated for 20 hrs by luciferase reporter gene assay relative to control; format: cell-based; details: HEK293T cells transfected with human LXRalpha, read-out: FC
T1 sequence (Q13133 whole entry): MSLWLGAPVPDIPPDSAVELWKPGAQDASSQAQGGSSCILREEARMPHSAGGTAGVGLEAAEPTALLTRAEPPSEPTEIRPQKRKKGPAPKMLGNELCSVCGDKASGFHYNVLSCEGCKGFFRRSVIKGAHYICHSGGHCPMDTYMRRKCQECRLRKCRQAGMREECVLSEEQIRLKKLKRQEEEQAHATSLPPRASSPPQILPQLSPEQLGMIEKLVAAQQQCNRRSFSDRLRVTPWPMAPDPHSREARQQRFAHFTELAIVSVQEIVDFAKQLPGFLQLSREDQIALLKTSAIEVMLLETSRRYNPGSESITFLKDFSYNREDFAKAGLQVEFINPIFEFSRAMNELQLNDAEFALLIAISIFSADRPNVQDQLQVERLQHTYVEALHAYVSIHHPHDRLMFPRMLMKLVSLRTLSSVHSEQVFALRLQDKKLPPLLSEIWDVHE

[2] = target: T2, Oxysterols receptor LXR-beta (Rattus norvegicus) (UniProt Q62755); assay: Agonist activity at rat LXRbeta transfected in HEK293T cells at 10 uM incubated for 20 hrs by luciferase reporter gene assay relative to control; format: cell-based
T2 sequence (whole entry): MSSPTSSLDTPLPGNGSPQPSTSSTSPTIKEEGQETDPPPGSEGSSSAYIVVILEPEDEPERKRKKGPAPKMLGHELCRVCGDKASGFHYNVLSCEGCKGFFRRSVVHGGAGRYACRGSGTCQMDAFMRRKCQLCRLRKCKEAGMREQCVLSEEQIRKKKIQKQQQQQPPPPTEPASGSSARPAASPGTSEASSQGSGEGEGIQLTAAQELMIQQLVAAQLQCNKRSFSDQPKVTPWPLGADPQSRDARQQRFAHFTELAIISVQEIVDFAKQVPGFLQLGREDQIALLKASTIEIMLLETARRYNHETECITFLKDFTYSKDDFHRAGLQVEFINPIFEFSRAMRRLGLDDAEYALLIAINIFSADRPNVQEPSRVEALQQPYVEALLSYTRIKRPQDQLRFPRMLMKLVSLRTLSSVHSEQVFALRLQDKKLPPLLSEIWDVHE

[3] = Selectivity index, ratio of compound effect for agonist activity at human LXRalpha to compound effect for agonist activity at […]
[4] = organism: Mus musculus; assay: Agonist activity at LXR in C57BL/6 mouse PBMC assessed as increase in ABCA1 mRNA expression at 10 uM incubated for 48 hrs by qPCR analysis
[5] = Agonist activity at LXR in C57BL/6 mouse PBMC assessed as increase in sREBP-1c mRNA expression at 10 uM incubated for 48 hrs by qPCR analysis
[6] = Agonist activity at LXR in mouse RAW264.7 cells assessed as increase in sREBP-1c mRNA expression at 10 uM incubated for 48 hrs by qPCR analysis; format: cell-based; details: raw264.7, 48 h
[7] = test system: HepG2; assay: Lipid lowering activity in human HepG2 cells assessed as decrease in OA-induced TG accumulation at 10 uM incubated for 24 hrs; format: functional, cell-based
[8] = test system: HepG2; assay: Effect on TG accumulation in human HepG2 cells at 10 uM incubated for 24 hrs; format: ADME, cell-based; details: hepg2, 24 h
[9] = target: Liver X receptor (Homo sapiens) (UniProt Q13133+P55055); assay: Agonist activity at LXR in human HepG2 cells assessed as increase in ABCA1 mRNA expression at 10 uM incubated for 24 hrs by qPCR analysis; format: cell-based
Sequence of Liver X receptor (Homo sapiens) (P55055 whole entry, looked up, one chain of several): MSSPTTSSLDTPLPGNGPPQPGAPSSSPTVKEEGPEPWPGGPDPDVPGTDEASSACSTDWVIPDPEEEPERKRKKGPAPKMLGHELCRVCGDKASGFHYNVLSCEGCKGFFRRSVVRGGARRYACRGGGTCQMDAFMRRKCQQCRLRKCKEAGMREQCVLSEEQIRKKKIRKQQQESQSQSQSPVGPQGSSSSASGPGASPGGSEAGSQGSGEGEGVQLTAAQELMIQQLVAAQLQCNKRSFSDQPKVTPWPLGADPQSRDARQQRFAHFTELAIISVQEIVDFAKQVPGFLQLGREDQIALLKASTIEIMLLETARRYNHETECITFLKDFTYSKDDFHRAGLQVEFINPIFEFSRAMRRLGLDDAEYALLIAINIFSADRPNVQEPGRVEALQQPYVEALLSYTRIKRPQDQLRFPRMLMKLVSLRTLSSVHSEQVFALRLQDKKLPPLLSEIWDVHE

[10] = Agonist activity at LXR in mouse 3T3L1 preadipocytes assessed as increase in ABCA1 mRNA expression at 10 uM by qPCR analysis; format: cell-based
[11] = Agonist activity at LXR in mouse 3T3L1 preadipocytes assessed as increase in sREBP-1c mRNA expression at 10 uM by qPCR analysis; format: cell-based

fold induction at 20 h, 10 µM [1]: 2.19 | fold change (FC) [2]: 2.42 | Activity [4]: Active | Activity [5]: Not Active | Activity [6]: Not Active | Activity [9]: Active | Activity [10]: Active | Activity [11]: Active
SMILES: O=C(O)Cc1cccc(OCCCN(Cc2cccc(C(F)(F)F)c2Cl)CC(c2ccccc2)c2ccccc2)c1
Ratio [3]: 1.11 | Activity [7]: inactive | Activity [8]: Toxic
